Laboratory results taken from PMC7156724, “Potent BRD4 inhibitor suppresses cancer cell-macrophage interaction” (Nature Communications, 2020).
Values joined by “and” are separate entries in the source; they are usually repeats but may differ in a detail not shown here. Equal entries are not always repeated.

How the values were obtained:
[1] = system: TMD8 large B cell lymphoma; assay: TMD8 large B cell lymphoma model tumor growth; format: in vivo, mouse; details: Fig.3c TMD-8, 25mg/kg p.o. QD x 21D, n=6, individual animals
Description: (§1) PO, oral administration; QD, once daily; BID, twice daily. b–d Tumor growth curves for A2780 ovarian tumor (n = 5) (b), TMD8 large B cell lymphoma (n = 6) (c), and B16F10 melanoma (n = 5) (d) bearing mice treated with the indicated compounds once daily for 11-21 days. e, f Tumor growth curves for A375 melanoma (n = 6) (e), and patient-derived xenograft (PDX) of melanoma (n = 5) (f) bearing mice treated with the indicated compounds once daily (5 days on, 2 days off) for 21 days. For d–f, NHWD-870 used is NHWD-870-HCl synthesized using Suzuki coupling route. Data are presented as mean ± SEM in (a, b, d, f) and mean + SEM in (c, e). p values were calculated using two-tailed, unpaired t tests. *p < 0.05; **p < 0.01; ***p < 0.001. Source data are provided as a Source Data file.
(§2) 4–6 weeks old female BALB/c nude mice were used for most experiments, with the exception of 6–8 weeks old female C57BL/6 mice were used for B16F10 experiments, and 6–8 weeks old male BALB/c nude mice and SD rats were used for pharmacokinetic experiments. All animals were purchased from Shanghai SIPPR-Bk Lab Animal Co., Ltd. All animals were housed under a regimen of 12 h light/12 h dark cycles and specific pathogen-free conditions. 5×10^6 NCI-H526, ES-2, MDA-MB231, A2780, A375, B16F10, and TMD-8 cells (0.1 ml) were injected subcutaneously into female nude mice. The melanoma patient-derived xenograft model was derived from a human melanoma sample (BRAF, NARS and NF1 wild type, and p53 mutant) removed from a patient in Xiangya Hospital. Surgically removed tumor fragments were implanted subcutaneously into female NSG mice. When the tumors grew to ~1000 mm^3, they were harvested and cryopreserved or immediately re-implanted for expansion or experiments. Mouse body weight and tumor sizes were measured every 3 days. Once the tumors grew to 150–200 mm^3, mice were treated with the compounds as described in the Figures. 1 × 10^6 A2780 cells (1 ml) were injected into the abdominal cavity of nude mice. Ascitic volume and tumor weight were measured by an electronic balance. All the procedures were evaluated and approved by the Institutional Animal Care and Use Committee of Central South University and Yale University.

[2] = system: B16F10 mouse melanoma; assay: B16F10 mouse melanoma syngeneic model tumor growth; format: in vivo, C57BL/6 mice; set-up: Tumor volume: unit not given here; details: Fig.3d, individual animals
Description: as §1, §2

[3] = Metabolic stability assay, mouse liver microsomes; details: in % (unit assumed)
Procedure: (§3) 7. Metabolic stability assay. The metabolic profile of NHWD-870 was determined using mouse, rat, dog, monkey, and human liver microsomes using the protocols […]
(§4) No. Compound ID Exat Mass Stock Conc.
(§5) 1) 100 mM potassium phosphate buffer, PH7.4; 2) 10mM MgCI2
(§6) 1) Intermediate solution: Dilute 5 μL of compound or control from stock solution (10 mM) with 45 uL DMSO,then mixed with 450 μL 1:1 Methanol/Water (Conc.: 10 0 […]
(§7) 2) Working solution: Dilute 50 μL from intermediate solution with 450 μL 100 mM potassium phosphate buffer (Conc.: 10 μM, 4.5%MeOH)
(§8) (3) NADPH regenerating system (final Isocitric dehydrogenase conc.= 1 unit/mL at […]
(§9) 1) β-Nicotinamide adenine dinucleotide phosphate, Vendor: sigma Cat. No. N0505
(§10) 2) Isocitric acid, Vendor: Sigma Cat. No. I1252
(§11) 3) Isocitric dehydrogenase, Vendor: sigma Cat. No. I2002
(§12) (4) Liver microsome solution preparation (final concentration o f 0.5 mg protein/mL) […]
(§13) Cold ACN including 100 ng/mL Tolbutamide and 100 ng/mL Labetalol as internal […]
(§14) 1) Add 10 μL compound or control working solution/well to all plates (T0, T5, T10, T20, T30, T60, NCF60) except matrix blank.
(§15) 2) Dispense 680 μL/well microsome solution to 96-well plate as reserv oir according to […]
(§16) plate map. Then add 80 μL/well to every plate by Apricot, incubate the mixture of microsome solution and compound at 37℃ for about 10 min.
(§17) 3) Add 10 μL 100 mM potassium phosphate buffer/well to NCF60, incubate at 37℃, […]
(§18) 4) After pre-warming, dispense 90 μL/well NADPH regenerating system to 96-well plate as reservoir according to the plate map. Then add 10 μL/well to every plate by Apricot to start reaction.
(§19) 5) Incubate at 37℃, start timer 2.
(§20) 6) Add 300 (μL/well) stop solution (cold in 4℃, including 100 ng/mL Tolbutamide and 100 ng/mL Labetalol) to terminate the reaction.
(§21) 7) The sampling plates are shaked for approx 10 min.
(§22) 8) Samples are centrifuged at 4000 rpm for 20 min under 4℃.
(§23) 9) While centrifuging, load 8×new 96-well plate with 300 μL HPLC water, then transfer 100 μL supernatant, mixed for LC/MS/MS.
(§24) Use equation of first order kinetics to calculate t1/2 and Clin t(mic): […]
(§25) Equation of first order kinetics: […]

[4] = Metabolic stability assay, rat liver microsomes; details: in % (unit assumed)
Procedure: as §3, §4, §5, §6, §7, §8, §9, §10, §11, §12, §13, §14, §15, §16, §17, §18, §19, §20, §21, §22, §23, §24, §25

[5] = Metabolic stability assay, dog liver microsomes; details: in % (unit assumed)
Procedure: as §3, §4, §5, §6, §7, §8, §9, §10, §11, §12, §13, §14, §15, §16, §17, §18, §19, §20, §21, §22, §23, §24, §25

[6] = Metabolic stability assay, monkey liver microsomes; details: in % (unit assumed)
Procedure: as §3, §4, §5, §6, §7, §8, §9, §10, §11, §12, §13, §14, §15, §16, §17, §18, §19, §20, §21, §22, §23, §24, §25

[7] = Metabolic stability assay, human liver microsomes; details: in % (unit assumed)
Procedure: as §3, §4, §5, §6, §7, §8, §9, §10, §11, §12, §13, §14, §15, §16, §17, §18, §19, §20, §21, §22, §23, §24, §25

C=CC(=O)N1CCC[C@@H](n2nc(-c3ccc(Oc4ccccc4)cc3)c3c(N)ncnc32)C1 [Ibrutinib, reference compound]
Tumor volume ([1]; day 0): 154.352 mm^3 and 126.234 mm^3 and 92.4707 mm^3 and 208.237 mm^3 and 189.187 mm^3 and 112.682 mm^3 | Tumor volume ([1]; day 3): 237.85 mm^3 and 276.464 mm^3 and 91.3933 mm^3 and 282.765 mm^3 and 163.343 mm^3 and 107.8 mm^3 | Tumor volume ([1]; day 7): 352.832 mm^3 and 423.619 mm^3 and 205.187 mm^3 and 365.185 mm^3 and 345.367 mm^3 and 135.53 mm^3 | Tumor volume ([1]; day 10): 473.704 mm^3 and 751.605 mm^3 and 389.433 mm^3 and 510.345 mm^3 and 486.864 mm^3 and 230.549 mm^3 | Tumor volume ([1]; day 14): 835.097 mm^3 and 1026.1 mm^3 and 435.155 mm^3 and 707.68 mm^3 and 720.134 mm^3 and 302.373 mm^3 | Tumor volume ([1]; day 17): 1017.47 mm^3 and 1815.12 mm^3 and 476.012 mm^3 and 822.388 mm^3 and 594.62 mm^3 and 293.12 mm^3 | Tumor volume ([1]; day 21): 1538.44 mm^3 and 2230.02 mm^3 and 727.616 mm^3 and 1254.35 mm^3 and 985.284 mm^3 and 887.285 mm^3

Cc1nnn(C)c1-c1cnc2c3c4cnn(C)c4ccc3n([C@H](c3ccccc3)C3CCOCC3)c2c1 [compound 870]
Tumor volume ([2]; 1mg/kg, day 0): 0 | Tumor volume ([2]; 1mg/kg, day 3): 56 and 75 and 36 and 4 and 137 | Tumor volume ([2]; 1mg/kg, day 7): 88 and 81 and 51 and 56 and 405 | Tumor volume ([2]; 1mg/kg, day 11): 198 and 63 and 191 and 162 and 405 | Tumor volume ([2]; 2mg/kg, day 0): 0 | Tumor volume ([2]; 2mg/kg, day 3): 14 and 36 and 172 and 3.5 and 2.5 | Tumor volume ([2]; 2mg/kg, day 7): 40 and 75 and 288 and 2.1 and 2.5 | Tumor volume ([2]; 2mg/kg, day 11): 0 and 237 and 500 and 2.5 and 1.6

O=C(O)Cc1ccccc1Nc1c(Cl)cccc1Cl [Diclofenac]
Remaining in mouse liver microsomes (Sup Fig.6a) ([3]; time 0): 100 | Remaining in mouse liver microsomes (Sup Fig.6a) ([3]; time 5): 92.277 | Remaining in mouse liver microsomes (Sup Fig.6a) ([3]; time 10): 89.557 | Remaining in mouse liver microsomes (Sup Fig.6a) ([3]; time 20): 85.421 | Remaining in mouse liver microsomes (Sup Fig.6a) ([3]; time 30): 78.177 | Remaining in mouse liver microsomes (Sup Fig.6a) ([3]; time 60): 51.477 | Remaining in rat liver microsomes (Sup Fig.6b) ([4]; time 0): 100 | Remaining in rat liver microsomes (Sup Fig.6b) ([4]; time 5): 75.339 | Remaining in rat liver microsomes (Sup Fig.6b) ([4]; time 10): 59.077 | Remaining in rat liver microsomes (Sup Fig.6b) ([4]; time 20): 35.911 | Remaining in rat liver microsomes (Sup Fig.6b) ([4]; time 30): 22.814 | Remaining in rat liver microsomes (Sup Fig.6b) ([4]; time 60): 4.586 | Remaining in Dog liver microsomes (Sup Fig.6c) ([5]; time 0): 100 | Remaining in Dog liver microsomes (Sup Fig.6c) ([5]; time 5): 94.367 | Remaining in Dog liver microsomes (Sup Fig.6c) ([5]; time 10): 98.224 | Remaining in Dog liver microsomes (Sup Fig.6c) ([5]; time 20): 89.21 | Remaining in Dog liver microsomes (Sup Fig.6c) ([5]; time 30): 87.634 | Remaining in Dog liver microsomes (Sup Fig.6c) ([5]; time 60): 78.588 | Remaining in Monkey liver microsomes (Sup Fig.6d) ([6]; time 0): 100 | Remaining in Monkey liver microsomes (Sup Fig.6d) ([6]; time 5): 88.217 | Remaining in Monkey liver microsomes (Sup Fig.6d) ([6]; time 10): 88.366 | Remaining in Monkey liver microsomes (Sup Fig.6d) ([6]; time 20): 94.477 | Remaining in Monkey liver microsomes (Sup Fig.6d) ([6]; time 30): 85.252 | Remaining in Monkey liver microsomes (Sup Fig.6d) ([6]; time 60): 84.048 | Remaining in Human liver microsomes (Sup Fig.6e) ([7]; time 0): 100 | Remaining in Human liver microsomes (Sup Fig.6e) ([7]; time 5): 68.568 | Remaining in Human liver microsomes (Sup Fig.6e) ([7]; time 10): 50.449 | Remaining in Human liver microsomes (Sup Fig.6e) ([7]; time 20): 28.02 | Remaining in Human liver microsomes (Sup Fig.6e) ([7]; time 30): 16.826 | Remaining in Human liver microsomes (Sup Fig.6e) ([7]; time 60): 2.933
